IC50 data for 2 compounds are collected here from patent US8012983B2, “Substituted triazolopyrazines useful for the treatment of degenerative and inflammatory diseases” (Galapagos NV, priority 2008, dated 2011).

The structures appear in SMILES notation.

The assay deals with MMP1 expression by activated synovial fibroblasts (RASFs). The experiment in a line: 'MMP assay': complex trigger-induced MMP1 expression by synovial fibroblasts (MMP1 ELISA). Format: cell-based. The settings on record: Homo sapiens, Fibroblast; RASFs, complex trigger, 48 hrs; read-out: MMP1 IC50. The procedure, abridged: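 Synovial fibroblasts seeded at 3,000 cells/well, treated with compound, then triggered with supernatant of TNF-α-treated THP-1 cells, diluted in M199 with low FBS. MMP1 in supernatant quantified by sandwich ELISA with biotinylated anti-MMP1 and streptavidin-HRP chemiluminescent detection.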
(An ELISA detects its analyte on a solid surface through an enzyme-linked reagent.)

Usually IC50 stands for the midpoint of a concentration-inhibition curve. On to `CC(C)N1C[C@@H]2C[C@H]1CN2c1cccc(Nc2ncc(-c3coc(C(N)=O)c3)n3ccnc23)c1` [Compound 25, 4-(8-(3-((1S,4S)-5-isopropyl-2,5-diazabicyclo[2.2.1]heptan-2-yl)phenylamino)imidazo[1,2-a]pyrazin-5-yl)furan-2-carboxamide], for which the IC50 was above 1 µM.
Regarding `CC(C)N1C[C@@H]2C[C@H]1CN2c1cccc(Nc2ncc(-c3ccc4c(c3)CNC4=O)n3ncnc23)c1` [Compound 26, 5-(8-(3-((1S,4S)-5-isopropyl-2,5-diazabicyclo[2.2.1]heptan-2-yl)phenylamino)-[1,2,4]triazolo[1,5-a]pyrazin-5-yl)isoindolin-1-one], the IC50 was above 1 µM.
